From ChEMBL document CHEMBL1201862, “PubChem BioAssay data set” (2004)
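Following 48 hours of exposure in 96-well plates, responses at five concentrations were used to interpolate endpoints linearly. GI50 is the concentration that inhibits growth by half.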 The source made the active and inactive calls. Rule as the data show it: active = GI50 up to about 1.1 µM and inactive = higher.

Columns and labels:
Test in all cases: NCI-60 cell line screen, 48 h
A498 = tested on: A498
A549 = tested on: A549
ACHN = tested on: ACHN
BT-549 = tested on: BT-549
CAKI-1 = tested on: CAKI-1
CCRF-CEM = tested on: CCRF-CEM
COLO 205 = tested on: COLO 205
DU-145 = tested on: DU-145
EKVX = tested on: EKVX
HCC 2998 = tested on: HCC 2998
HCT-116 = tested on: HCT-116
HCT-15 = tested on: HCT-15
HL-60 = tested on: HL-60
HOP-62 = tested on: HOP-62
HOP-92 = tested on: HOP-92
HT-29 = tested on: HT-29
Hs-578T = tested on: Hs-578T
IGROV-1 = tested on: IGROV-1
K562 = tested on: K562
KM12 = tested on: KM12
LOX IMVI = tested on: LOX IMVI
M14 = tested on: M14
MCF7 = tested on: MCF7
MDA-MB-231 = tested on: MDA-MB-231
MDA-MB-435 = tested on: MDA-MB-435
MDA-N = tested on: MDA-N
MOLT-4 = tested on: MOLT-4
Malme-3M = tested on: Malme-3M
NCI-H23 = tested on: NCI-H23
NCI-H460 = tested on: NCI-H460
NCI-H522 = tested on: NCI-H522
NCI/ADR-RES = tested on: NCI/ADR-RES
OVCAR-3 = tested on: OVCAR-3
OVCAR-4 = tested on: OVCAR-4
OVCAR-5 = tested on: OVCAR-5
OVCAR-8 = tested on: OVCAR-8
PC-3 = tested on: PC-3
RPMI-8226 = tested on: RPMI-8226
RXF 393 = tested on: RXF 393
SF-268 = tested on: SF-268
SF-295 = tested on: SF-295
SF-539 = tested on: SF-539
SK-MEL-28 = tested on: SK-MEL-28
SK-MEL-2 = tested on: SK-MEL-2
SK-MEL-5 = tested on: SK-MEL-5
SK-OV-3 = tested on: SK-OV-3
SN12C = tested on: SN12C
SNB-19 = tested on: SNB-19
SNB-75 = tested on: SNB-75
SW-620 = tested on: SW-620
T47D = tested on: T47D
TK-10 = tested on: TK-10
U-251 = tested on: U-251
UACC-257 = tested on: UACC-257
UACC-62 = tested on: UACC-62
UO-31 = tested on: UO-31

In the case of `Cc1cc(O)cc(O)c1/N=N/c1ccc([N+](=O)[O-])cc1`, the GI50 (A498) is reported as 18.4 µM (inactive), the GI50 (A549) is reported as 30.1 µM (inactive) and the GI50 (ACHN) is reported as 17.1 µM (inactive). For the same compound, the GI50 (BT-549) was 15 µM (inactive), the GI50 (CAKI-1) was 14.2 µM (inactive) and the GI50 (CCRF-CEM) was 5.69 µM (inactive). The GI50 (COLO 205) was 30.5 µM (inactive), the GI50 (DU-145) was 22.9 µM (inactive) and the GI50 (EKVX) was 22.3 µM (inactive). The GI50 (HCC 2998) was 10.4 µM (inactive), the GI50 (HCT-116) was 3.51 µM (inactive) and the GI50 (HCT-15) was 6.87 µM. The GI50 (HL-60) was 5.16 µM (inactive), the GI50 (HOP-62) was > 100 µM (inactive) and the GI50 (HOP-92) was 2.39 µM (inactive). The GI50 (HT-29) was 29.3 µM (inactive), the GI50 (Hs-578T) was 27.5 µM (inactive) and the GI50 (IGROV-1) was 16.1 µM (inactive). The GI50 (K562) was 3.27 µM (inactive), the GI50 (KM12) was 22.6 µM (inactive) and the GI50 (LOX IMVI) was 23.7 µM (inactive). For the same compound, the GI50 (M14) was 22.5 µM (inactive), the GI50 (MCF7) was 16.5 µM (inactive) and the GI50 (MDA-MB-231) was 14.8 µM (inactive). The GI50 (MDA-MB-435) was 13.8 µM (inactive), the GI50 (MDA-N) was 15.6 µM (inactive) and the GI50 (MOLT-4) was 5.3 µM (inactive). For the same compound, the GI50 (Malme-3M) was 20.2 µM (inactive), the GI50 (NCI-H23) was 17.7 µM (inactive) and the GI50 (NCI-H460) was 19.4 µM (inactive). For the same compound, the GI50 (NCI-H522) was 3.48 µM (inactive), the GI50 (NCI/ADR-RES) was 10.6 µM (inactive) and the GI50 (OVCAR-3) was > 100 µM (inactive). The GI50 (OVCAR-4) was 9.64 µM (inactive), the GI50 (OVCAR-5) was 27.7 µM (inactive) and the GI50 (OVCAR-8) was 17.9 µM (inactive). For the same compound, the GI50 (PC-3) was 16 µM (inactive), the GI50 (RPMI-8226) was 5.22 µM (inactive) and the GI50 (RXF 393) was 10.6 µM (inactive). The GI50 (SF-268) was 9.86 µM (inactive), the GI50 (SF-295) was > 100 µM (inactive) and the GI50 (SF-539) was 29 µM (inactive). For the same compound, the GI50 (SK-MEL-28) was 16.6 µM (inactive), the GI50 (SK-MEL-2) was 15.4 µM (inactive) and the GI50 (SK-MEL-5) was 12.6 µM (inactive). For the same compound, the GI50 (SK-OV-3) was > 100 µM (inactive), the GI50 (SN12C) was 5.71 µM (inactive) and the GI50 (SNB-19) was 37.3 µM (inactive). For the same compound, the GI50 (SNB-75) was 18.5 µM (inactive), the GI50 (SW-620) was 5.96 µM (inactive) and the GI50 (T47D) was 9.14 µM (inactive). The GI50 (TK-10) was 23.9 µM (inactive), the GI50 (U-251) was 16.7 µM (inactive) and the GI50 (UACC-257) was 25.1 µM (inactive). For the same compound, the GI50 (UACC-62) was 12.9 µM (inactive) and the GI50 (UO-31) was 25 µM (inactive).
